Test results reported in ChEMBL document CHEMBL1201862, “PubChem BioAssay data set” (2004).
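Assay format: 96-well plates, 48-hour exposure. Abbreviation: GI50, concentration required for 50% inhibition of growth.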 The source made the active and inactive calls. Cut-off read from the data, not from the text of the source: active = GI50 up to about 1.1 µM and inactive = higher.

Legend:
Assay in all cases: DTP human tumour cell line panel, 48 h
SR = system: SR
M19-MEL = system: M19-MEL
K562 = system: K562
KM-20L2 = system: KM-20L2
Malme-3M = system: Malme-3M
HCT-15 = system: HCT-15
SW-620 = system: SW-620
HOP-92 = system: HOP-92
LOX IMVI = system: LOX IMVI
EKVX = system: EKVX
SK-MEL-2 = system: SK-MEL-2
DMS-273 = system: DMS-273
786-0 = system: 786-0
SF-268 = system: SF-268
HCT-116 = system: HCT-116
OVCAR-8 = system: OVCAR-8
LXFL 529 = system: LXFL 529
MDA-N = system: MDA-N
BT-549 = system: BT-549
MDA-MB-231 = system: MDA-MB-231

SMILES	GI50 (SR)	GI50 (M19-MEL)	GI50 (K562)	GI50 (KM-20L2)	GI50 (Malme-3M)	GI50 (HCT-15)	GI50 (SW-620)	GI50 (HOP-92)	GI50 (LOX IMVI)	GI50 (EKVX)	GI50 (SK-MEL-2)	GI50 (DMS-273)	GI50 (786-0)	GI50 (SF-268)	GI50 (HCT-116)	GI50 (OVCAR-8)	GI50 (LXFL 529)	GI50 (MDA-N)	GI50 (BT-549)	GI50 (MDA-MB-231)
COc1cc2c(c(OC)c1OC)-c1ccc(SC)c(=O)cc1[C@@H](NC(=O)c1ccc([N+](=O)[O-])cc1)CC2	0.00522 µM (active)	0.0195 µM (active)	< 0.0025 µM (active)	< 0.0025 µM (active)	< 0.0025 µM (active)	0.00843 µM	< 0.0025 µM (active)	< 0.0025 µM (active)	< 0.0025 µM (active)	< 0.0025 µM (active)	0.0045 µM (active)	< 0.0025 µM (active)	0.00528 µM (active)	0.0154 µM (active)	< 0.0025 µM (active)					
CN(C)C1(C#N)CCC2(CC1)OCCO2	> 100 µM (inactive)	> 100 µM (inactive)	> 100 µM (inactive)	> 100 µM (inactive)	> 100 µM (inactive)	> 100 µM	> 100 µM (inactive)	> 100 µM (inactive)	> 100 µM (inactive)	> 100 µM (inactive)	> 100 µM (inactive)	> 100 µM (inactive)	> 100 µM (inactive)	> 100 µM (inactive)	> 100 µM (inactive)	> 100 µM (inactive)				
Oc1cccnc1/C=N/OCc1ccccc1		> 100 µM (inactive)	> 100 µM (inactive)	> 100 µM (inactive)	> 100 µM (inactive)	> 100 µM	> 100 µM (inactive)		> 100 µM (inactive)	> 100 µM (inactive)	> 100 µM (inactive)	> 100 µM (inactive)	> 100 µM (inactive)	> 100 µM (inactive)	> 100 µM (inactive)	> 100 µM (inactive)	> 100 µM (inactive)			
N#CC(C(=N/O)/C(=N/O)C(C#N)c1ccc(Cl)cc1)c1ccc(Cl)cc1 (centres undefined)		> 100 µM (inactive)		> 100 µM (inactive)	> 100 µM (inactive)	55.2 µM	76.7 µM (inactive)	> 100 µM (inactive)	82.8 µM (inactive)	> 100 µM (inactive)	> 100 µM (inactive)	> 100 µM (inactive)	> 100 µM (inactive)	> 100 µM (inactive)	> 100 µM (inactive)	40 µM (inactive)	30.4 µM (inactive)			
O=C1NC2(CCCCC2)C2=C1CCCCC2	> 100 µM (inactive)	> 100 µM (inactive)	> 100 µM (inactive)		> 100 µM (inactive)	> 100 µM	> 100 µM (inactive)	> 100 µM (inactive)	> 100 µM (inactive)	> 100 µM (inactive)	> 100 µM (inactive)	> 100 µM (inactive)	> 100 µM (inactive)	> 100 µM (inactive)	> 100 µM (inactive)	> 100 µM (inactive)	> 100 µM (inactive)			
COC1=CC(=O)C2C(C1=O)[C@@H]1c3ccccc3OC[C@H]21 (some centres undefined)			> 100 µM (inactive)	> 100 µM (inactive)	> 100 µM (inactive)	> 10 µM	> 100 µM (inactive)	> 100 µM (inactive)	> 100 µM (inactive)	> 100 µM (inactive)	> 100 µM (inactive)	> 100 µM (inactive)	> 100 µM (inactive)	> 100 µM (inactive)	> 100 µM (inactive)	> 100 µM (inactive)	> 100 µM (inactive)			
C=CCC1(O)C(=O)OC2C(O)COC21O (centres undefined)	> 100 µM (inactive)		> 100 µM (inactive)		> 100 µM (inactive)	> 100 µM	> 100 µM (inactive)	> 100 µM (inactive)	> 100 µM (inactive)	> 100 µM (inactive)	> 100 µM (inactive)		> 100 µM (inactive)	> 100 µM (inactive)	> 100 µM (inactive)	> 100 µM (inactive)		> 100 µM (inactive)	> 100 µM (inactive)	> 100 µM (inactive)
O=c1cccccc1NCCCCNc1cccccc1=O		83.2 µM (inactive)	> 100 µM (inactive)	> 100 µM (inactive)	29.4 µM (inactive)	84.7 µM	67.6 µM (inactive)		> 100 µM (inactive)	> 100 µM (inactive)	> 100 µM (inactive)	> 100 µM (inactive)	> 100 µM (inactive)	41.4 µM (inactive)	> 100 µM (inactive)	> 100 µM (inactive)	48.8 µM (inactive)			
CC1(C)CCCCCCCCCC(C)(CCCO)C1=O (centres undefined)	35.2 µM (inactive)		24.6 µM (inactive)		16.8 µM (inactive)	17.8 µM	19.7 µM (inactive)	14.5 µM (inactive)	17.6 µM (inactive)	15.8 µM (inactive)	15 µM (inactive)		16.9 µM (inactive)	18.2 µM (inactive)	17.3 µM (inactive)	18.4 µM (inactive)		16.4 µM (inactive)	17.7 µM (inactive)	15.2 µM (inactive)
